Experimental data: US6566081B1, “Methods of identifying a compound which modulates the non-transcriptional non-map-kinase induced effects of steroid hormones” (The Brigham and Women's Hospital, Inc., priority 1999, dated 2003)
pEC50: −log10 of the molar value. “And” between values parts separate entries of the source, which are not always exact repeats. Identical values can stand only once. “Also recorded” adds a separate entry of the source.

Experiments:
eNOS [1] = experiment: eNOS activity assay (conversion of [3H]-arginine to [3H]-citrulline) in treated human endothelial cells; format: cell-based; conditions: for effect on E2-stimulated eNOS activity, later phase (≥15 min) or 30 min / time after stimulation at which PI3-kinase/eNOS activity is stimulated: E2 10 nM; for effect on E2-stimulated eNOS activity, later phase (≥15 min) or 30 min: wortmannin 30 nM, ICI 10 μM, genistein 50 μM, PD98059 5 μM, actinomycin D 2 h pretreatment; for effect on basal eNOS activity, substance alone: no E2; for time after stimulation at which PI3-kinase/eNOS activity is stimulated / stimulation of eNOS activity by the substance alone: insulin 100 nM; for stimulation of eNOS activity by the substance alone: E2/αE2 10 nM
Experimental: Fetal bovine serum was deprived of estrogen by charcoal-stripping. Once grown to confluence the cells were replated on 1.5% gelatin-coated flasks at 20000 cells/cm^2. […] Cell number was assessed by direct cell counting of adherent cells, after trypsin detachment, in a Neubauer hemocytometer (VWR Scientifics). The percentage of cells excluding Trypan Blue after staining with the compound was taken as a measure of cell viability.
Endothelial cells were grown to confluence on 55 cm^2 culture dishes, treated according to the indicated conditions, and harvested in ice-cold PBS containing 1 mM EDTA. The cell lysates were pelleted in a microfuge (2 minutes, 13000 rpm, 4° C.) and subsequently homogenized in a buffer containing 25 mM Tris-HCl, pH 7.4, 1 mM EDTA, 1 mM EGTA. eNOS activity was determined by measuring the conversion of [^3H]-arginine to [^3H]-citrulline. Rat cerebellum extracts, containing elevated amounts of neuronal NOS, were used as positive controls, while endothelial cell extracts incubated in the presence of the competitive eNOS inhibitor L-NAME (1 mM) served as negative controls.
Human and bovine aortic endothelial cells were harvested enzymatically with Type IA collagenase (1 mg/mL).

Akt/PKB = experiment: Immunoblotting of Akt phosphorylation (Thr 308, Ser 473); format: cell-based, human
Experimental: (§1) After the different treatments, serum-starved endothelial cells were rinsed once with ice-cold PBS before addition of the lysis buffer (100 mM Tris-HCl, pH 6.8, 4% SDS, 20% glycerol, 1 mM sodium orthovanadate, 1 mM NaF, and 1 mM phenylmethylsulfonylfluoride) to the dishes on an ice tray. The cell lysates were scraped, boiled, and centrifuged for 2 min at 13000 rpm. Total cell lysates (40 μg of protein) and low range molecular weight markers (BIO-RAD, Hercules, Calif.) were separated by SDS-polyacrylamide gel electrophoresis (12% running, 4% stacking), electrophoretically transferred to polyvinylidene fluoride membranes (Immobilon P, 0.45 μm pore size) and incubated overnight at 4° C. with blocking solution (5% skim milk in TBS—0.1% Tween 20). Affinity-purified rabbit antibodies (0.4 μg of IgG/ml) vs. Akt, (Ser 473) phospho-Akt or (Thr 308) phospho-Akt (New England BioLabs, Beverly, Mass.), Erk1/2, (Tyr 204) phospho-Erk-1/-2 (Calbiochem, San Diego, Calif.) were incubated with the membranes overnight at 4° C. in TBS—0.1% Tween 20 containing 5% BSA. The blots were washed three times with TBS—0.1% Tween 20 and then treated with donkey anti-rabbit antibody (1:4000 dilution) coupled to horseradish peroxidase. Immunodetection was accomplished using the enhanced chemoluminescence kit (ECL Kit, Amersham Corp.).

PtdIns-3,4,5-P3 = experiment: Endogenous PtdIns-3,4,5-P3 levels in non-transfected human endothelial cells; format: cell-based; conditions: E2 10 nM, insulin 100 nM
ER-α / PI3-kinase p85α = target: T1, ER-α / PI3-kinase p85α (Homo sapiens, UniProt P03372); experiment: ER-α immunoprecipitation: co-precipitated p85α and associated PI3-kinase activity; format: cell-based; conditions: ER-α immunoprecipitate
T1 construct: endogenous in cells; host or cells: human endothelial cells (HSVEC), anti-ERα immunoprecipitate
T1 sequence (P03372 1-595): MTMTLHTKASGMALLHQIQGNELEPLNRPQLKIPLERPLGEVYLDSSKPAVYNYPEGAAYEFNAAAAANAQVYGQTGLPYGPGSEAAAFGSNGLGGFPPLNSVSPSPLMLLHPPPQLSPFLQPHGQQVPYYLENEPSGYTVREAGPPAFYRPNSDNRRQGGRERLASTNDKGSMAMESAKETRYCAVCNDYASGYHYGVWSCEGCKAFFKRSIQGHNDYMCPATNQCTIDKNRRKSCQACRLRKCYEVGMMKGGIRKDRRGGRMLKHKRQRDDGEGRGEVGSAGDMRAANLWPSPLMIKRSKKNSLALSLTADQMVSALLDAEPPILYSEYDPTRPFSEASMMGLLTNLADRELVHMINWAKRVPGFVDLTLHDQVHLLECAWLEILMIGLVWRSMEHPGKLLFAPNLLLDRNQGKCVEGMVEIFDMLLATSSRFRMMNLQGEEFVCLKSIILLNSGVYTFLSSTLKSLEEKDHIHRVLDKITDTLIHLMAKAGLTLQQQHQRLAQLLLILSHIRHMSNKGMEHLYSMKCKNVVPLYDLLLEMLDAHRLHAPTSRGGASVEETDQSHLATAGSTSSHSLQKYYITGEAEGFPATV

PI3K = experiment: p-Tyr- and IRS-1-associated PI3K activity (immunoprecipitate); format: cell-based, human; conditions: p-Tyr and IRS-1 immunoprecipitate
eNOS [2] = target: T2, eNOS (Mus musculus, UniProt P70313); experiment: Cremaster eNOS activity in mice; format: in vivo; conditions: mice with 1.5 mg slow-release E2 tablets s.c.
T2 construct: from tissue; host or cells: cremaster muscle of male C57BL/6 mice
T2 sequence (P70313 2-1202): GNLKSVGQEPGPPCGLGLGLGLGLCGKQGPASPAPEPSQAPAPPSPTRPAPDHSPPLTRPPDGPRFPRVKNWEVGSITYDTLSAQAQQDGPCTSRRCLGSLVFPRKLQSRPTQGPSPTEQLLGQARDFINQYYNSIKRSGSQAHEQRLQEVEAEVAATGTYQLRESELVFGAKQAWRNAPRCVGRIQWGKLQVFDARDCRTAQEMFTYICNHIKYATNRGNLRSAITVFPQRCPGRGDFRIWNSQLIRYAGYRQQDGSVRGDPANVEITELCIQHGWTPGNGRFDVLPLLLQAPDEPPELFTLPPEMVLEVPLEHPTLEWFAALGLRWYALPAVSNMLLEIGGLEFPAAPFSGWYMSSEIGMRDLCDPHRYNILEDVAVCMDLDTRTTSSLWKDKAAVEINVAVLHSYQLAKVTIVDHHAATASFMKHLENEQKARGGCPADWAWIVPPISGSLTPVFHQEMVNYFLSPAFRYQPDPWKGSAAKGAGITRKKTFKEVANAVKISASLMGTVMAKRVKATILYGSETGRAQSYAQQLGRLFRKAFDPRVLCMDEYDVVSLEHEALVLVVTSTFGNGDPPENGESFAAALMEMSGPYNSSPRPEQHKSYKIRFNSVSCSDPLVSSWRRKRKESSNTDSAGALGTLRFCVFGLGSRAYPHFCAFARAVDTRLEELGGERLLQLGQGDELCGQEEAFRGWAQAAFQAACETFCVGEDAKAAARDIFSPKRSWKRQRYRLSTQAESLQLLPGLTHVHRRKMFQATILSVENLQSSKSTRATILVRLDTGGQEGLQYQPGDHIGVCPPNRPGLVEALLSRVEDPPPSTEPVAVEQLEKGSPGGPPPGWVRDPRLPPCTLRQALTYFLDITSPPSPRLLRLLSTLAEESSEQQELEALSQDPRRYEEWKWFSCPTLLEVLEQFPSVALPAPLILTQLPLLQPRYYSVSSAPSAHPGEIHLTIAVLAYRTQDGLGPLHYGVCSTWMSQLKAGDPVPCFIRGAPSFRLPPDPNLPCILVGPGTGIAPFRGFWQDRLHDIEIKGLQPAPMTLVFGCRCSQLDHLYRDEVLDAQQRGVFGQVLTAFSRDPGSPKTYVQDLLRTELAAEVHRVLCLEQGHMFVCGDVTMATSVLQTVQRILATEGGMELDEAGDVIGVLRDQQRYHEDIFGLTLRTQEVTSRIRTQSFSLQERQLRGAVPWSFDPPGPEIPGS
Experimental: Mice were anesthetized and the cremaster muscle was studied under intravital microscopy^28. Ischemia was induced by applying pressure to supplying arteries just sufficient to stop blood flow for 30 min. In some experiments, wortmannin (100 nM) or L-NAME (0.1 mM) was applied to the cremaster muscle during the ischemic period. The pressure was released for reperfusion, and the same vessels were recorded in each animal before and after I/R. The rolling velocities of 25 leukocytes were measured in each venule; sorted and averaged for each rank to construct cumulative histograms. The velocities of 3,750 leukocytes were measured in 150 venules before and after I/R. The number of firmly adherent leukocytes was measured before and after I/R in the same 200 μm long segments of venules. The following number of venules were studies for leukocyte adhesion: Untreated, 15 venules; E2-treated, 20 venules; E2-treated with wortmannin, 25 venules; E2-treated with L-NAME, 15 venules. Cremaster eNOS activity was measured in 3 untreated, 4 E2-treated, 5 E2-treated with wortmannin, and 4 E2-treated with L-NAME mice.

ERK 1 and 2 = experiment: Immunoblotting of ERK 1/2 phosphorylation; format: cell-based, human; conditions: E2 10 nM, from 2 minutes
Experimental: as §1

[3] = Serum E2 level in mice implanted with E2 tablets; format: in vivo, mouse; conditions: mice implanted s.c. with 1.5 mg slow-release E2 tablets, 3-5 days
eNOS [4] = experiment: E2-stimulated eNOS activity in transfected murine fibroblasts; conditions: murine fibroblasts transfected with ERα and eNOS cDNAs
[5] = E2/αE2 10 nM, insulin 100 nM, 20 min

C[C@]12CC[C@@H]3c4ccc(O)cc4C[C@@H](CCCCCCCCC[S+]([O-])CCCC(F)(F)C(F)(F)F)[C@H]3[C@@H]1CC[C@@H]2O (stereo partly shown) [ICI 187,780]
effect on E2-stimulated eNOS activity, later phase (≥15 min) or 30 min (eNOS [1]): complete blockade; also recorded: completely blocked | effect on E2-stimulated eNOS activity, later phase (≥15 min) or 30 min (eNOS [1]; listed as ICI 182,780): completely blocked | effect on basal eNOS activity, substance alone (eNOS [1]): neither wortmannin nor ICI 187,780 alone affected basal eNOS activity | effect on basal eNOS activity, substance alone (eNOS [1]; listed as ICI 182,780): did not produce any effect | effect on E2-induced Akt Ser 473 phosphorylation (Akt/PKB; ICI 10 μM, wortmannin 30 nM): not inhibited | effect on E2-induced Akt Thr 308 phosphorylation (Akt/PKB; ICI 10 μM, wortmannin 30 nM): blocked

insulin: known activator of the PI3-kinase/Akt pathway
endogenous PtdIns-3,4,5-P3 levels (PtdIns-3,4,5-P3): rapidly increased | stimulation of ER-α-associated PI3-kinase activity (ER-α / PI3-kinase p85α): did not increase or augment | p-Tyr- or IRS-1-associated PI3K activity (PI3K): increases | time after stimulation at which PI3-kinase/eNOS activity is stimulated (eNOS [1]): ≤ 2 min | stimulation of eNOS activity by the substance alone (eNOS [1]; 30 min): marked increase; also recorded: able to stimulate | stimulation of eNOS activity by the substance alone (eNOS [1]; 30 min, listed as Insulin): activates eNOS activity

17β-estradiol [E2]
increase in eNOS activity in cremaster muscle (eNOS [2]): 3.2 fold | endogenous PtdIns-3,4,5-P3 levels (PtdIns-3,4,5-P3): increased | phosphorylation of ERK 1 and 2 (ERK 1 and 2): increased phosphorylation | serum E2 level [3]: 760 ± 30 pg/mL | increase in eNOS activity, wild-type fibroblasts (eNOS [4]): 8 fold | p-Tyr- or IRS-1-associated PI3K activity (PI3K): did not increase | lowest concentration increasing eNOS activity (eNOS [1]; 30 min treatment of HSVEC): 10 pM | pEC50 (eNOS [1]; E2 10 pM-1 μM, 30 min, human endothelial cells, read-out: EC50 value for increase in eNOS activity): ~10.00 and 10.00 | time after stimulation at which PI3-kinase/eNOS activity is stimulated (eNOS [1]): > 15 min | stimulation of eNOS activity by the substance alone (eNOS [1]; 30 min): increases eNOS activity; also recorded: biphasic increase in eNOS activity; also recorded: marked increase | time of maximum effect on PI3-kinase and eNOS activity (eNOS [1]; after stimulation): 15 to 20 min | Akt Ser 473 phosphorylation (Akt/PKB; [5]): hyperphosphorylated after 20 minutes | Akt threonine (Thr 308) phosphorylation (Akt/PKB; [5]): phosphorylated after 20 minutes; also recorded: increase in Akt phosphorylation
